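All cell lines were grown in 96-well plates and treated with compound for 48 hours. TGI marks complete inhibition of growth.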
Experiments:
Test in all cases: DTP human tumour cell line panel, 48 h
[1] = tested on: SNB-75 CNS
[2] = tested on: IGROV1 ovarian
[3] = tested on: UACC-257 melanoma
[4] = tested on: KM12 colon
[5] = tested on: MOLT-4 leukemia
[6] = tested on: SR leukemia
[7] = tested on: HCT-116 colon
[8] = tested on: M14 melanoma
[9] = tested on: SK-MEL-2 melanoma
[10] = tested on: NCI/ADR-RES ovarian
[11] = tested on: PC-3 prostate
[12] = tested on: OVCAR-4 ovarian
[13] = tested on: HOP-92 NSCLC
[14] = tested on: DU-145 prostate
[15] = tested on: CAKI-1 renal
[16] = tested on: RXF 393 renal
[17] = tested on: MDA-MB-231 breast
[18] = tested on: SK-MEL-5 melanoma
[19] = tested on: HOP-62 NSCLC
[20] = tested on: HL-60(TB) leukemia
[21] = tested on: LOX IMVI melanoma
[22] = tested on: HCC-2998 colon
[23] = tested on: RPMI-8226 leukemia
[24] = tested on: NCI-H23 lung
[25] = tested on: 786-0 renal
[26] = tested on: SW-620 colon
[27] = tested on: UACC-62 melanoma
[28] = tested on: ACHN renal
[29] = tested on: U251 CNS
[30] = tested on: TK-10 renal
[31] = tested on: MDA-MB-435
[32] = tested on: HT29 colon
[33] = tested on: HS 578T breast
[34] = tested on: SK-OV-3 ovarian
[35] = tested on: COLO 205 colon
[36] = tested on: EKVX NSCLC
[37] = tested on: T-47D breast
[38] = tested on: UO-31 renal
[39] = tested on: SF-539 CNS
[40] = tested on: K-562 leukemia
[41] = tested on: SF-295 CNS
[42] = tested on: SF-268 CNS
[43] = tested on: MCF7 breast
[44] = tested on: HCT-15 colon
[45] = tested on: A498 renal
[46] = tested on: SK-MEL-28 melanoma
[47] = tested on: OVCAR-8 ovarian
[48] = tested on: NCI-H226 lung
[49] = tested on: CCRF-CEM leukemia
[50] = tested on: NCI-H460 lung
[51] = tested on: BT-549 breast
[52] = tested on: SNB-19 CNS

With NC(=O)c1c2c(n3ccccc13)C(=O)c1ccccc1C2=O the TGI [1] was > 100 µM, the TGI [2] was > 100 µM and the TGI [3] was > 100 µM. For the same molecule, the TGI [4] was > 100 µM, the TGI [5] was > 100 µM and the TGI [6] was > 100 µM. The TGI [7] was > 100 µM, the TGI [8] was > 100 µM and the TGI [9] was > 100 µM. The TGI [10] was > 100 µM, the TGI [11] was > 100 µM and the TGI [12] was > 100 µM. The TGI [13] was > 100 µM, the TGI [14] was > 100 µM and the TGI [15] was > 100 µM. For the same molecule, the TGI [16] was > 100 µM, the TGI [17] was 93 µM and the TGI [18] was 37 µM. The TGI [19] was > 100 µM, the TGI [20] was > 100 µM and the TGI [21] was > 100 µM. The TGI [22] was > 100 µM, the TGI [23] was > 100 µM and the TGI [24] was 36.4 µM. For the same molecule, the TGI [25] was > 100 µM, the TGI [26] was > 100 µM and the TGI [27] was > 100 µM. The TGI [28] was > 100 µM, the TGI [29] was > 100 µM and the TGI [30] was > 100 µM. The TGI [31] was 44 µM, the TGI [32] was > 100 µM and the TGI [33] was > 100 µM. For the same molecule, the TGI [34] was > 100 µM, the TGI [35] was > 100 µM and the TGI [36] was > 100 µM. For the same molecule, the TGI [37] was > 100 µM, the TGI [38] was > 100 µM and the TGI [39] was > 100 µM. For the same molecule, the TGI [40] was > 100 µM, the TGI [41] was > 100 µM and the TGI [42] was > 100 µM. The TGI [43] was > 100 µM, the TGI [44] was > 100 µM and the TGI [45] was > 100 µM. For the same molecule, the TGI [46] was > 100 µM, the TGI [47] was > 100 µM and the TGI [48] was > 100 µM. For the same molecule, the TGI [49] was > 100 µM, the TGI [50] was 82.5 µM and the TGI [51] was > 100 µM. The TGI [52] was > 100 µM.

In the case of O=c1[nH]c2ccc(C(F)(F)F)cc2nc1Cc1ccccc1, the TGI [1] is reported as > 100 µM, the TGI [2] is reported as > 100 µM and the TGI [3] is reported as > 100 µM. The TGI [4] was > 100 µM, the TGI [5] was 46 µM and the TGI [6] was > 100 µM. The TGI [7] was > 100 µM, the TGI [8] was 97.1 µM and the TGI [9] was 62.6 µM. For the same molecule, the TGI [10] was 71.2 µM, the TGI [11] was 81.3 µM and the TGI [12] was > 100 µM. For the same molecule, the TGI [13] was 50.4 µM, the TGI [14] was > 100 µM and the TGI [15] was > 100 µM. For the same molecule, the TGI [16] was 61.6 µM, the TGI [17] was > 100 µM and the TGI [18] was 60.2 µM. For the same molecule, the TGI [19] was > 100 µM, the TGI [20] was > 100 µM and the TGI [21] was > 100 µM. It also gave a TGI [22] of 82.6 µM, a TGI [23] of 87.6 µM and a TGI [24] of 46.5 µM. For the same molecule, the TGI [25] was > 100 µM, the TGI [26] was > 100 µM and the TGI [27] was > 100 µM. The TGI [28] was 88.4 µM, the TGI [29] was > 100 µM and the TGI [30] was > 100 µM. The TGI [31] was > 100 µM, the TGI [32] was 68.7 µM and the TGI [33] was 71.3 µM. For the same molecule, the TGI [34] was > 100 µM, the TGI [35] was 40.7 µM and the TGI [36] was > 100 µM. For the same molecule, the TGI [37] was > 100 µM, the TGI [38] was > 100 µM and the TGI [39] was > 100 µM. The TGI [40] was > 100 µM, the TGI [41] was > 100 µM and the TGI [42] was > 100 µM. The TGI [43] was > 100 µM, the TGI [44] was > 100 µM and the TGI [45] was 66.9 µM. For the same molecule, the TGI [46] was > 100 µM, the TGI [47] was > 100 µM and the TGI [48] was 50.7 µM. For the same molecule, the TGI [49] was > 100 µM, the TGI [50] was > 100 µM and the TGI [51] was 69.4 µM. For the same molecule, the TGI [52] was > 100 µM.

Source: PubChem BioAssay (NCI)
